Measured values from patent US20040152727A1, “Novel use” (priority 2001, published 2004).
Marks after values point to notes of the source that are not given here.

What was measured:
rats [1] = assay: rat gastric emptying, phenol red method; assay type: in vivo; conditions: for % GASTRIC EMPTYING: rat, oral
rats [2] = assay: gastrointestinal motility in rats, charcoal meal test; assay type: in vivo, rat; conditions: for effect on gastrointestinal motility in the rat: charcoal meal test; for % CHANGE FROM VEHICLE-TREATED ANIMALS / GROUP MEAN DISTANCE TRAVELLED BY CHARCOAL AS % OF TOTAL GUT LENGTH ± SD: rat, oral
Text: Thus, the distance travelled by the charcoal meal in each Compound (I)-treated group was similar to the vehicle-treated group at each tested dose.

[3] = tested on: guinea-pig enteric neurones; assay: slow EPSP in guinea-pig enteric neurones; assay type: cell-based; conditions: 0.1 microM
Experimental: The slowEPSP was elicited by high frequency (20 Hz) electrical stimulation for 1 s, applied to a circumferential internodal strand connecting to the ganglion. […] It was perfused continuously and the slowEPSP was tested at various intervals. In all four neurons there was a decrease of peak amplitude of depolarisation of over 50% when compared with baseline, once the drug had circulated for at least 30 minutes.

[4] = tested on: guinea-pig isolated colon; assay: stretch-induced reflex activity in guinea-pig isolated colon; conditions: 250 nM applied for 30-45 min; 6, 12 or 20 g weights; greater at higher distension
Text: For reflex studies, 5-7 cm lengths of colon were suspended in warmed, oxygenated physiological saline, so that an 8 mm metal bar could be inserted into the lumen and connected, via a thread passing through the intestinal wall, to a pulley system which allowed different weights to pull on the bar and distend the intestine. Force transducers were attached to the wall of the colon via small wire hooks, 5 mm either side of the distending bar. Colonic wall distension using 6, 12 or 20 g weights evoked rhythmic contractions oral to the distension and a small relaxation on the anal side. Application of 12 and 20 g weights evoked similar patterns of activity and although the small relaxation on the anal side of the distension seemed more apparent, the oral excitatory response was not different from the effects of the 6 g weight.

rats [5] = assay: egg-albumin sensitized increase in rat small intestinal transit; assay type: in vivo; conditions: pre-treatment 15 mg/kg po
conscious rats = assay: colo-rectal distension in conscious rats (intestinal nociception); assay type: in vivo, rat
rat NK-3 receptor = biological target: T1, rat NK-3 receptor (Rattus norvegicus, UniProt P16177); assay: affinity for the rat NK-3 receptor; assay type: binding; conditions: relative to its higher affinity for the human or guinea-pig variants
T1 sequence (P16177 1-452): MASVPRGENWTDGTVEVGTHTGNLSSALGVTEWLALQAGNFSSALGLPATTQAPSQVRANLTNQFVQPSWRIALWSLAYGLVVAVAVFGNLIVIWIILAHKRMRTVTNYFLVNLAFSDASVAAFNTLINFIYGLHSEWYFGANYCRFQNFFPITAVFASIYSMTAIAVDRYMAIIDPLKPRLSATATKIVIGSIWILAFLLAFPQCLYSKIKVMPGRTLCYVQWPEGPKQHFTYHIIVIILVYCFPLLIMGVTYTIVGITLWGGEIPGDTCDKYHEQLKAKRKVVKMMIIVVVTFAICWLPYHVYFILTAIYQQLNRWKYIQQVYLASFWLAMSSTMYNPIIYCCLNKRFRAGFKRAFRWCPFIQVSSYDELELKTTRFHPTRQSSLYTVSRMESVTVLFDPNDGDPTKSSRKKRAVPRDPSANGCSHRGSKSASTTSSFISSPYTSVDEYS

rats [6] = assay: small intestinal transit in normal, non-sensitised animals; assay type: in vivo, rat; conditions: 15 mg/kg po

SMILES: CN1CC[C@]23c4c5ccc(O)c4O[C@H]2[C@@H](O)C=C[C@H]3[C@H]1C5.O=S(=O)(O)O [Morphine sulfate, reference compound]
- effect on rat gastric emptying (rats [1]; orally at 20 mg/kg): marked and statistically significant decrease
- % GASTRIC EMPTYING (rats [1]; 20 mg/kg): 30.8** %
- effect on gastrointestinal motility in the rat (rats [2]; oral dose of 10 mg/kg): marked and statistically significant decrease
- % CHANGE FROM VEHICLE-TREATED ANIMALS (rats [2]; 10 mg/kg): −29.4%
- GROUP MEAN DISTANCE TRAVELLED BY CHARCOAL AS % OF TOTAL GUT LENGTH ± SD (rats [2]; 10 mg/kg): 37.4 ± 12.4%

SMILES: CC[C@H](NC(=O)c1c(O)c(-c2ccccc2)nc2ccccc12)c1ccccc1 [Compound (I), (S)-N-(α-ethylbenzyl)-3-hydroxy-2-phenylquinoline-4-carboxamide]
- decrease of peak amplitude of depolarisation of slowEPSP compared with baseline ([3]; circulated at least 30 minutes, all four neurons): over 50%
- blockade of slowEPSP ([3]; one neuron): 100%
- blockade of slowEPSP based on the amplitude of depolarisation ([3]; the other three neurons): 60-80%
- effect on reflexes evoked by colonic wall distension [4]: reduced the effects of distension
- effect on increased transit after egg-albumin sensitisation (rats [5]): greatly inhibited
- effect on rat gastric emptying (rats [1]; oral doses of 5, 15 and 50 mg/kg): no marked or statistically significant effects
- % GASTRIC EMPTYING (rats [1]; 5 mg/kg): 55.2%
- % GASTRIC EMPTYING (rats [1]; 15 mg/kg): 50.7%
- % GASTRIC EMPTYING (rats [1]; 50 mg/kg): 62.4%
- antinociceptive effect during colo-rectal distension (conscious rats; 10 mg/kg po): without anti-nociceptive activity
- antinociceptive effect during colo-rectal distension (conscious rats; 30 mg/kg po): statistically significant only at the highest distension pressure
- effect on colo-rectal tone (conscious rats; 50 mg/kg po): without affecting colo-rectal tone
- antinociceptive effect during colo-rectal distension (conscious rats; 50 mg/kg po, 30, 45 and 60 mmHg distension pressures): significant antinociceptive effect
- effect on gastrointestinal motility in the rat (rats [2]; oral, 5, 15 and 50 mg/kg): no marked or statistically significant effect
- % CHANGE FROM VEHICLE-TREATED ANIMALS (rats [2]; 5 mg/kg): −11.5%
- GROUP MEAN DISTANCE TRAVELLED BY CHARCOAL AS % OF TOTAL GUT LENGTH ± SD (rats [2]; 5 mg/kg): 46.9 ± 5.3%
- % CHANGE FROM VEHICLE-TREATED ANIMALS (rats [2]; 15 mg/kg): −1.7%
- GROUP MEAN DISTANCE TRAVELLED BY CHARCOAL AS % OF TOTAL GUT LENGTH ± SD (rats [2]; 15 mg/kg): 52.1 ± 7.1%
- % CHANGE FROM VEHICLE-TREATED ANIMALS (rats [2]; 50 mg/kg): −4.9%
- GROUP MEAN DISTANCE TRAVELLED BY CHARCOAL AS % OF TOTAL GUT LENGTH ± SD (rats [2]; 50 mg/kg): 50.4 ± 8.6%
- affinity for the rat NK-3 receptor (rat NK-3 receptor): low affinity
- effect on small intestinal transit (rats [6]): did not significantly affect
